In patent publication US6521751B1, “Recombinant nucleic acid sequences and methods for determining both genotoxicity and mutagenicity of a sample and the kinetics of the genotoxicity” (Vlaamse Instelling voor Technologisch Onderzoek (VITO), priority 1998, dated 2003):
Values joined by “and” are separate entries in the source; they are usually repeats but may differ in a detail not shown here. Identical values can stand only once. Like-named read-outs stand apart in the source and are kept apart here.

Tests used:
S. typhimurium = details: cited from earlier work
TA104 (pMOL890) = details: M9 medium saturated with 0.1% of the PAH, degrading strain, samples every 3 days
[1] = tested on: TA 98 and TA104 strains containing pMOL1067 or pMOL1068
E. coli (sfiA-lacZ) = details: cited from earlier work; for MINIMAL DETECTED CONCENTRATION (MDC): literature values
[2] = tested on: novel biosensor systems in E. coli and in S. typhimurium strains; assay: Subject SOS promoter-lux systems (general statements); details: agents known to give false negative results in the SOS chromotest and the Ames test
[3] = tested on: TA98 and TA104 strains containing pMOL890, pMOL1067 or pMOL1068; assay: Test with the TA98 and TA104 strains containing pMOL890, pMOL1067 or pMOL1068
[4] = tested on: S. typhimurium TA104 containing pMOL1068; details: TA104 pMOL1068
[5] = tested on: S. typhimurium TA104 containing pMOL1066; details: TA104 pMOL1066
[6] = tested on: S. typhimurium TA98 containing pMOL1067; details: TA98 pMOL1067
[7] = tested on: S. typhimurium TA98 containing pMOL890; details: TA98 pMOL890
[8] = tested on: S. typhimurium TA104 containing pMOL890; details: TA104 pMOL890
[9] = tested on: TA98 and TA104 containing pMOL1067; assay: Induction kinetics with pMOL1067; type: cell-based, S. typhimurium
Protocol: The reaction of the different constructs when more than one genotoxic product is present in the test sample. was examined. This is an important aspect, since environmental samples often contain more than one genotoxic pollutant. Also in this regard many pharmaceutical products that have to be tested for genotoxicity can be a combination of different active genotoxic substances (e.g. anticancer or anti AIDS drugs). The experiments were performed with TA98 and TA104 containing either pMOL1067 or pMOL890. These two constructs were chosen since they show similar induction kinetics and the best signal/noise ratio's in S. typhimurium (see FIG. 7 and FIG. 8). As test products, several combinations of MMS and novobiocine were taken. These products were used since they were found by us to have different induction kinetics (e.g., with pMOL1067 MMS gives a maximum after 2 hours, while the maximal signal/noise ratio with novobiocine is observed after 4 hours).

[10] = tested on: S. typhimurium TA104 containing pMOL1067; details: TA104 pMOL1067
[11] = tested on: S. typhimurium TA98 containing pMOL1068; details: TA98 pMOL1068
[12] = tested on: S. typhimurium TA104 containing pMOL1069; details: TA104 pMOL1069
[13] = tested on: S. typhimurium TA98* containing pMOL890
[14] = tested on: S. typhimurium TA104* containing pMOL890
[15] = tested on: S. typhimurium TA1535* containing pMOL890
[16] = tested on: S. typhimurium TA100* containing pMOL890
[17] = tested on: S. typhimurium TA1538* containing pMOL890
[18] = TA 98 and TA104 strains containing pMOL1067 or pMOL1068

For `c1ccc2c(c1)ccc1ccccc12` [Phenanthrene], the “AMES (result)” value (S. typhimurium; Ames test, Table 3) is given as “neg”, the “result in the Ames test” value (S. typhimurium; text b127) is given as “False-negative” and the “genotoxicity during bacterial degradation of the PAH” value (TA104 (pMOL890)) is given as “an increase followed by a decrease in genotoxicity”. The “OUTCOME (genotoxicity, final outcome)” value [1, 18] was “pos”, the “SOS (result)” value (E. coli (sfiA-lacZ); SOS chromotest, Table 3) was “pos” and the “result in the novel systems according to the invention” value (shortened to “result in the novel systems according”) [2] was “positive”. For the same compound, the “result in the test (genotoxicity)” value [3] was “positive”.
For `CO[C@@H]1[C@@H](OC(N)=O)[C@@H](O)[C@H](Oc2ccc3c(O)c(NC(=O)c4ccc(O)c(CC=C(C)C)c4)c(=O)oc3c2C)OC1(C)C` [novobiocine], the “MINIMAL DETECTED CONCENTRATION (MDC)” value (S. typhimurium; AMES, literature values, pos/neg where MDC could not be calculated) is given as “pos”, the “AMES (result)” value (S. typhimurium; Ames test, Table 3) is given as “pos” and the “OUTCOME (genotoxicity, final outcome)” value [1, 18] is given as “pos”. For the same compound, the “MINIMAL DETECTED CONCENTRATION (MDC)” value [4] was 1.26 nmol/assay, the “MINIMAL DETECTED CONCENTRATION (MDC)” value [5] was 1.26 nmol/assay and the “MINIMAL DETECTED CONCENTRATION (MDC)” value [6] was 0.079 nmol/assay. The “MINIMAL DETECTED CONCENTRATION (MDC)” value [7] was 0.57 nmol/assay, the “MINIMAL DETECTED CONCENTRATION (MDC)” value [8] was 1.26 nmol/assay and the “time of maximal signal/noise ratio” value [9] was 4 h. For the same compound, the “MINIMAL DETECTED CONCENTRATION (MDC)” value [10] was 0.32 nmol/assay, the “SOS (result)” value (E. coli (sfiA-lacZ); SOS chromotest, Table 3) was “neg” and the “MINIMAL DETECTED CONCENTRATION (MDC)” value (E. coli (sfiA-lacZ); SOS chromotest) was “neg”. The “result in the SOS chromotest” value (E. coli (sfiA-lacZ); text b126) was “negative”, the “MINIMAL DETECTED CONCENTRATION (MDC)” value [11] was 0.63 nmol/assay and the “result in the novel systems according” value [2] was “positive”. For the same compound, the “result in the test (genotoxicity)” value [3] was “positive” and the “MINIMAL DETECTED CONCENTRATION (MDC)” value [12] was 0.32 nmol/assay.
In the case of `c1ccc2c(c1)Cc1ccccc1-2` [fluorene], the “genotoxicity during bacterial degradation of the PAH” value (TA104 (pMOL890)) is reported as “no significant increase in genotoxicity”.
In the case of `OO` [H2O2, hydrogen peroxide], the “AMES (result)” value (S. typhimurium) is given as “neg”, the “MINIMAL DETECTED CONCENTRATION (MDC)” value (S. typhimurium) is given as “neg” and the “result in the Ames test” value (S. typhimurium) is given as “False-negative”. The “OUTCOME (genotoxicity, final outcome)” value [1, 18] was “pos”, the “MINIMAL DETECTED CONCENTRATION (MDC)” value [4] was 11.8 nmol/assay and the “MINIMAL DETECTED CONCENTRATION (MDC)” value [5] was 11.8 nmol/assay. For the same compound, the “MINIMAL DETECTED CONCENTRATION (MDC)” value [6] was 1.5 nmol/assay, the “MINIMAL DETECTED CONCENTRATION (MDC)” value [7] was 8.5 nmol/assay and the “MINIMAL DETECTED CONCENTRATION (MDC)” value [8] was 3.8 nmol/assay. For the same compound, the “MINIMAL DETECTED CONCENTRATION (MDC)” value [10] was 11.8 nmol/assay, the “SOS (result)” value (E. coli (sfiA-lacZ); SOS chromotest, Table 3) was “pos” and the “MINIMAL DETECTED CONCENTRATION (MDC)” value (E. coli (sfiA-lacZ); SOS chromotest) was 23 nmol/assay. The “MINIMAL DETECTED CONCENTRATION (MDC)” value [11] was 1.5 nmol/assay, the “result in the novel systems according” value [2] was “positive” and the “result in the test (genotoxicity)” value [3] was “positive”. For the same compound, the “MINIMAL DETECTED CONCENTRATION (MDC)” value [12] was 5.9 nmol/assay.
In the case of `COS(C)(=O)=O` [MMS, Methylmethanesulphonate], the “AMES (result)” value (S. typhimurium) is listed as “pos”, the “MINIMAL DETECTED CONCENTRATION (MDC)” value (S. typhimurium) is listed as 60 nmol/assay and the “Number of His^+ revertants” value ([13]; MMS 0.1 μl) is listed as 25 and 27. For the same compound, the “Number of His^+ revertants” value ([13]; MMS 0.2 μl) was 26 and 28, the “Number of His^+ revertants” value ([13]; MMS 1 μl) was 22 and 27 and the “OUTCOME (genotoxicity, final outcome)” value [1, 18] was “pos”. The “Conclusion (Ames test)” value (S. typhimurium TA98) was “−”, the “Number of His^+ revertants” value (S. typhimurium TA100; MMS 0.1 μl) was 344 and 392 and the “Number of His^+ revertants” value (S. typhimurium TA100; MMS 0.2 μl) was 604 and 560. The “Number of His^+ revertants” value (S. typhimurium TA100; MMS 1 μl) was 1120 and 1282, the “MINIMAL DETECTED CONCENTRATION (MDC)” value [4] was 7.3 nmol/assay and the “MINIMAL DETECTED CONCENTRATION (MDC)” value [5] was 7.3 nmol/assay. For the same compound, the “Number of His^+ revertants” value ([14]; MMS 0.1 μl) was 224 and 218, the “Number of His^+ revertants” value ([14]; MMS 0.2 μl) was 428 and 325 and the “Number of His^+ revertants” value ([14]; MMS 1 μl) was 672 and 724. For the same compound, the “Number of His^+ revertants” value ([15]; MMS 0.1 μl) was 32, the “Number of His^+ revertants” value ([15]; MMS 0.2 μl) was 24 and the “Number of His^+ revertants” value ([15]; MMS 1 μl) was 29 and 26. For the same compound, the “Number of His^+ revertants” value ([16]; MMS 0.1 μl) was 160 and 152, the “Number of His^+ revertants” value ([16]; MMS 0.2 μl) was 242 and 314 and the “Number of His^+ revertants” value ([16]; MMS 1 μl) was 536 and 528. For the same compound, the “MINIMAL DETECTED CONCENTRATION (MDC)” value [6] was 7.3 nmol/assay, the “MINIMAL DETECTED CONCENTRATION (MDC)” value [7] was 7.3 nmol/assay and the “MINIMAL DETECTED CONCENTRATION (MDC)” value [8] was 7.3 nmol/assay. For the same compound, the “Number of His^+ revertants” value (S. typhimurium TA1535; MMS 0.1 μl) was 27 and 18, the “Number of His^+ revertants” value (S. typhimurium TA1535; MMS 0.2 μl) was 23 and 24 and the “Number of His^+ revertants” value (S. typhimurium TA1535; MMS 1 μl) was 27 and 38. The “Conclusion (Ames test)” value (S. typhimurium TA104) was “+”, the “Conclusion (Ames test)” value (S. typhimurium TA1538) was “−” and the “time of maximal signal/noise ratio” value [9] was 2 h. The “Number of His^+ revertants” value ([17]; MMS 0.1 μl) was 36 and 28, the “Number of His^+ revertants” value ([17]; MMS 0.2 μl) was 28 and 27 and the “Number of His^+ revertants” value ([17]; MMS 1 μl) was 27 and 29. The “MINIMAL DETECTED CONCENTRATION (MDC)” value [10] was 7.3 nmol/assay, the “SOS (result)” value (E. coli (sfiA-lacZ); SOS chromotest, Table 3) was “pos” and the “MINIMAL DETECTED CONCENTRATION (MDC)” value (E. coli (sfiA-lacZ); SOS chromotest) was 20 nmol/assay. The “MINIMAL DETECTED CONCENTRATION (MDC)” value [11] was 7.3 nmol/assay and the “MINIMAL DETECTED CONCENTRATION (MDC)” value [12] was 7.3 nmol/assay.
In the case of `c1ccc2c(c1)-c1cccc3cccc-2c13` [Fluoranthene], the “AMES (result)” value (S. typhimurium) is given as “pos”, the “genotoxicity during bacterial degradation of the PAH” value (TA104 (pMOL890)) is given as “an increase of genotoxicity” and the “OUTCOME (genotoxicity, final outcome)” value [1] is given as “pos”. For the same compound, the “SOS (result)” value (E. coli (sfiA-lacZ)) was “pos”.
